Assay results published in patent publication US20160067267A1, “MYO-INOSITOL TRISPYROPHOSPHATE AS AN ANTI-OBESITY AGENT” (NormOxys, Inc., priority 2013, published 2016).

Experiments:
[1] = First study: prevention of weight gain on high fat diet, ITPP in drinking water, 120 days; type: in vivo
Protocol: (§1) Experiments were conducted in analogue ways. First, 30 Balb/c-mice, 10 mice in each group, were assessed. Group 1 was a control group; mice were fed with normal mouse food and water for the whole duration of the experiment (120 days). […] Group III was fed with high fat diet, normal food and, instead of normal water, animals drank an ITPP solution for the duration of the experiment of (ITPP). The concentration was 10 g ITPP per liter water, containing no calcium salt, pH˜6.8-7.2).
(§2) The HFD was 235HF (U8955 version 9) casein 20%, corn starch 13%, sucrose 24.3%, cellulose 5%, malto dextrin 2.2%, lard 25%, soja oil 2.5%, mineral 205B SAFE 7%, and vitamine 200 SAFE 1%.
(§3) All food, water, and ITPP were given ad libitum. In 5 days intervals, body weights from each animal were recorded.

[2] = Second study: prevention of weight gain on high fat diet, ITPP in drinking water, 70 days; type: in vivo; conditions: FIG. 2
Protocol: as §1, §2, §3
As before, in 5 days intervals body weights of the Balb/c-mice were measured.

[3] = Third study: weight loss of overweight mice on normal food drinking ITPP solution, about 30 days; type: in vivo, Balb/c-mice; conditions: FIG. 3, normal mouse food, water with ITPP 10 g per liter
Protocol: In a third study the group with the 10 mice which had gained weight (˜30%) was divided in two groups (5 animals per cage). For 1 month, one group drank water while the other one drank an ITPP-solution (10 g/L) for about 30 days until the date of observation. The food was normal mouse food as before (pellets from SAFE, France). The body weights of the mice were measured 4 times until the final day.

## O=P1(O)OC2C3OP(=O)(O)OP(=O)(O)OC3C3OP(=O)(O)OP(=O)(O)OC3C2OP(=O)(O)O1 (stereo not drawn) [ITPP, inositol-tripyrophosphate]
[1]; FIG. 1, HFD + ITPP solution 10 g per liter water ad libitum, oral, 70 days after beginning, HFD/water mice ~40 g
  weight of Balb/c mice: ~30 g
[1]; FIG. 1, HFD + ITPP solution 10 g/L ad libitum, oral
  tolerability of ITPP solution: well tolerated
[1]; HFD + ITPP in water versus HFD + water
  first day with significant differences in weight, HFD/water versus HFD/ITPP: 10 days
[1]; HFD + ITPP in water, whole period of the experiment, compared with normal-food control group
  weight increase of ITPP drinking group on HFD: did not increase their weight at all
[1]; orally offered ITPP solution with HFD, two periods (120 days and 70 days), fur, eyes, vitality normal
  mortality and general condition: No animal died or was suffering
[2]; HFD + ITPP 10 g/L in drinking water
  tolerability of ITPP: tolerated very well
[2]; HFD/ITPP consumers, 10 g/L in drinking water, 70 days, HFD/water mice ~40 g
  weight of Balb/c mice: < 30 g
[2]; HFD/ITPP consumers, 70 days, HFD/water mice gained approximately 30%
  weight gain: did not gain significant weight
[3]
  weight loss versus untreated group: lost considerably more weight than the untreated group
